In patent US9051320B1, “Methods for the treatment of metabolic disorders by a selective small molecule autotaxin inhibitor” (PharmAkea, Inc., priority 2014, dated 2015):
Where a name gives a salt, the structure may show the parent alone. Read-outs that look alike come from different tables or passages of the source.

What was measured:
[1] = tested on: mice fed a normal diet or a high fat diet; details: cited from earlier work; for glucose tolerance: injection
[2] = tested on: mice fed a high fat diet (HFD); test: Glucose tolerance test in mice fed a high fat diet; format: in vivo, C57B16/J male mice; details: for total blood glucose AUC: after i.p. 1 g/kg glucose; for baseline glucose (fasting blood glucose): sodium salt
Protocol: C57B16/J male mice were fed a normal diet until 9-10 weeks of age. […] For determination of blood glucose, mice were administered test compound orally in 0.5% methocel once or twice daily for several days prior to the glucose challenge. Compounds were administered as a sodium salt. On the day of the glucose tolerance test (GTT) mice were fasted for 6-8 hours and a last dose of test compound administered orally 1-3 hours before the intraperitoneal (i.p.) injection of 1 g/kg D-glucose (Sigma). Blood from the tail vein was sampled before the glucose load (baseline glucose) and every 15-30 min over the next 120 min after the glucose challenge to monitor blood glucose concentration. Blood glucose was quantified using a glucose meter (Accu-Chek, Roche Diagnostics or AlphaTRAK, Abbott Animal Health) and plotted vs. time. Total blood glucose area under the curve (AUC) after the i.p. glucose challenge was calculated from the time plot using GraphPad Prism6.

human autotaxin (ATX) = molecular target: T1, human autotaxin (ATX) (Homo sapiens, UniProt Q13822); test: Human autotaxin assay (choline release from LPC, Hep3B conditioned media); format: biochemical; details: LPC 14:0 100 uM
T1 construct: ATX activity is assayed in concentrated conditioned media from Hep3B human hepatocellular carcinoma cells; endogenous in cells; host or cells: Hep3B human hepatocellular carcinoma cells (20-fold concentrated conditioned medium)
Protocol: ATX activity is assayed in concentrated conditioned media from Hep3B human hepatocellular carcinoma cells by measuring the amount of choline released from the substrate, lysophosphatidylcholine (LPC) as it is cleaved to LPA. Conditioned media is collected from confluent Hep3B cells and concentrated 20-fold using Centriprep-30 filter devices (Millipore).

[3] = chronic treatment, mice fed a high fat diet
[4] = 30 mg/kg oral twice daily for two days and once on the day of sampling
[5] = 30 mg/kg oral twice daily for two days prior to sampling and once on the day of sampling

Cc1noc(-c2ccc(CSCCC(=O)O)cc2)c1NC(=O)OC(C)c1ccccc1Cl (centres unmarked) [Ki16425]
capacity of a muscle to oxidize glucose [1, 3]: increases
fasting insulin levels [1, 3]: improves
insulin sensitivity [1, 3]: improves
liver glycogen storage [1, 3]: increases
glucose tolerance ([1]; mice fed a high fat diet): does significantly improve
glucose tolerance ([1]; mice fed a normal diet): does not significantly improve

CCCn1cc(-n2c(Cl)c(Sc3cccc(C(=O)O)c3F)c3ccc(Cl)c(F)c32)cn1 [Compound C, 3-((2,6-dichloro-7-fluoro-1-(1-propyl-1H-pyrazol-4-yl)-1H-indol-3-yl)thio)-2-fluorobenzoic acid]
total blood glucose AUC ([2]; 15 mg/kg oral twice daily for two days and once on the day of sampling): decrease
baseline glucose (fasting blood glucose) ([2]; 15 mg/kg oral twice daily for two days prior to sampling and once on the day of sampling): decrease

O=C(O)CCN1C(=O)[C@@H]2Cc3c(n(Cc4ccc(F)cc4)c4ccccc34)CN2C1=O [Compound A, (S)-3-(6-(4-fluorobenzyl)-1,3-dioxo-5,6,11,11a-tetrahydro-1H-imidazo [1′,5′:1,6]pyrido[3,4-b]indol-2(3H)-yl)propanoic acid]
total blood glucose AUC [2, 4]: decrease
baseline glucose (fasting blood glucose) [2, 5]: decrease

Cc1c(Sc2cccc(C(=O)O)c2F)c2ccc(Cl)c(F)c2n1CC(=O)N1CCC(O)(C(F)(F)F)C1 (single isomer, unassigned) [Compound E]
baseline glucose (fasting blood glucose) ([2]; 30 mg/kg oral once daily for 5 days prior to sampling): decrease

CCn1cc(-n2c(C3CC3)c(Sc3cccc(C(=O)O)n3)c3ccc(Cl)c(F)c32)cn1 [Compound D, 6-((6-chloro-2-cyclopropyl-1-(1-ethyl-1H-pyrazol-4-yl)-7-fluoro-1H-indol-3-yl)thio)picolinic acid sodium salt]
total blood glucose AUC [2, 4]: decrease
baseline glucose (fasting blood glucose) [2, 5]: decrease
IC50 (human autotaxin (ATX)): < 500 nM
